Test results as given in patent publication US11667661B2, “Benzimidazole derivatives, preparation method thereof and use thereof as anti-cancer agent comprising the same” (BIOMETRIX TECHNOLOGY INC, priority 2020, dated 2023).
“Also recorded” adds a separate entry of the source.

Assays:
[1] = system: human lung cancer cell line A549, cervical cancer cell line Hela, colorectal cancer cell line HT-29; assay: Cancer cell line growth inhibition test (WST-8 cell viability, 72 h); format: cell-based; conditions: for Cancer Cell line growth inhibition test: relative evaluation compared to doxorubicin
Procedure: A human lung cancer cell line A549, a cervical cancer cell line Hela, and a colorectal cancer cell line HT-29 were adopted from the Korea Cell Line Bank (KCLB, Seoul, Korea) and cultured in a culture medium.
In a humidified cell culture incubator containing 5% CO2; at 37° C. using a DMEM and a 10% culture flask, fetal bovine serum (FBS), 0.1 mM MEM non-essential amino acid (NEAA), 2 mM L-glutamine, and 1% penicillin-streptomycin were trypsinized every 2 to 3 days according to the instructions provided by the KCLB to subculture the cells. The culture was cultured until reached 80% to 90% of confluence, and the cells were successively transferred to a culture flask for a cancer cell line growth inhibition test.
A cancer cell line, a human lung cancer cell line A549, a cervical cancer cell line Hela, and a colorectal cancer cell line HT-29 to be tested were seeded in a 96-well plate at about 10,000 cells per well.
After incubation, the medium was removed and the cell viability in each well was measured using a WST-8 cell viability assay kit (Quanti-Max™, BIOMAX) and according to a procedure instructed by a manufacturer.
The analysis used a principle that dehydrogenase of living cells decomposed tetrazolium salt to generate formazan, and through this, the living cells were quantitatively evaluated.
Reduced formazan salt was soluble in a cell culture medium and an amount of formazan was directly proportional to the number of living cells (Slater, T. et al. (1963) Biochem. Biophys. Acta 77:383. van de Loosdrecht, A. A., et al. J. Immunol. Methods 174: 311-320, 1994. Alley, M. C., et al. Cancer Res. 48: 589-601, 1988.).

[2] = system: normal lung cell line MRC-5 and normal colon CCD-18Co cell line; assay: Toxicity test in normal cell line (WST-8 cell viability, 72 h); format: cell-based; conditions: for Normal cell line toxicity test: relative evaluation compared to doxorubicin

Row | Substance | Cancer Cell line growth inhibition test [1] | cancer cell line growth inhibition efficiency ([1]; FIG. 1, A549, Hela, HT-29, 0-100 μM, 72 hours, versus albendazole, fenbendazole, doxorubicin) | toxicity to the normal cell lines ([2]; FIG. 2, MRC-5, CCD-18Co, 0-100 μM, 72 hours, compared to albendazole, fenbendazole, and doxorubicin) | Normal cell line toxicity test [2]
1 | Fenbendazole-1,2,3,4-Tetra-β-D-fructose [FB-2] | AA (AA represents equal (1 to 2 times)) |  |  | 
2 | albendazole-1,2,3,4-Tetra-β-D-glucose [AL-1] | AA (AA represents equal (1 to 2 times)) | most excellent; also recorded: very excellent | very weak | AA (AA represents little toxicity ( 1/10 times))
3 | Fenbendazole-1,2,3,4-Tetra-β-D-glucose [FB-1] | AA (AA represents equal (1 to 2 times)) |  |  | 
4 | albendazole-1,2,3,4-Tetra-β-D-fructose [AL-2] | AA (AA represents equal (1 to 2 times)) |  |  | AA (AA represents little toxicity ( 1/10 times))
